Laboratory results from ChEMBL document CHEMBL1126897, “Tyrphostins. 3. Structure-activity relationship studies of alpha-substituted benzylidenemalononitrile 5-S-aryltyrphostins” (J Med Chem, 1993).

Tests used:
[1] = biological target: T1, Epidermal growth factor receptor (Homo sapiens, UniProt P00533); assay: Inhibitory concentration against EGF receptor by autophosphorylation
[2] = biological target: T1, Epidermal growth factor receptor; assay: Inhibitory concentration against EGF receptor by polyGAT phosphorylation
[3] = biological target: T1, Epidermal growth factor receptor; assay: Inhibition of polyGAT phosphorylation by EGF receptor

T1 sequence (P00533 whole entry): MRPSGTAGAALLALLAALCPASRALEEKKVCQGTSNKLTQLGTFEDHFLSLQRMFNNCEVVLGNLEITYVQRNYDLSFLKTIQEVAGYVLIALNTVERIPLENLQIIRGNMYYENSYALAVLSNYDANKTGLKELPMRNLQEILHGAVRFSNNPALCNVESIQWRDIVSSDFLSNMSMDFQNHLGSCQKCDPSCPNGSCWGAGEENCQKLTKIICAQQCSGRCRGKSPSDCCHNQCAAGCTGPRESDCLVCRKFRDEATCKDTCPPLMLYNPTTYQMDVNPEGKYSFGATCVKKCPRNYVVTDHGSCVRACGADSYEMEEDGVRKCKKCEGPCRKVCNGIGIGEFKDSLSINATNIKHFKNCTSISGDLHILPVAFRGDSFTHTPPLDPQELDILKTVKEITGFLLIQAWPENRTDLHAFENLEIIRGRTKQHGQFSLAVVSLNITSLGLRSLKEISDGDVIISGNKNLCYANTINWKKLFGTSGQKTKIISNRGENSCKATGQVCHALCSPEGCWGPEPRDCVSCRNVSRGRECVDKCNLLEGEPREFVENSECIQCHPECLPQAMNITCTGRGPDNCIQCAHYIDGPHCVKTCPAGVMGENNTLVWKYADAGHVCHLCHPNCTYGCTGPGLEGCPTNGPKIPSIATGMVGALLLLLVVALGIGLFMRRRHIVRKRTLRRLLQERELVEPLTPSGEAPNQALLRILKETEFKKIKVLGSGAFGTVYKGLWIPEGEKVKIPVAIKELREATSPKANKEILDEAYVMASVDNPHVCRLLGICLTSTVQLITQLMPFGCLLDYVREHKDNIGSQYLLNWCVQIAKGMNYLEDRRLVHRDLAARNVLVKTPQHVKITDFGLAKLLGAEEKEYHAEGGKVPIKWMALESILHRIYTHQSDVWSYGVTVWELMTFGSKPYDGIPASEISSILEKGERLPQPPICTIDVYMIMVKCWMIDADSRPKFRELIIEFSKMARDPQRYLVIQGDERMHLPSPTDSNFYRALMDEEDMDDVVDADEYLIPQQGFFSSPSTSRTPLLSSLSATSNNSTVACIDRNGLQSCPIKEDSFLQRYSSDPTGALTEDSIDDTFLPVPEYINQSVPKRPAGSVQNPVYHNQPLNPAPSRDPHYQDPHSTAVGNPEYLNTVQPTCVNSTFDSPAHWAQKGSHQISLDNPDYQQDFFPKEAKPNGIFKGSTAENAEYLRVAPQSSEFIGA

Compound | IC50 [1] | IC50 [2] | IC50 [3]
COc1cc(/C=C(\C#N)C(N)=O)cc(CSc2nc3cc(Cl)ccc3s2)c1O | > 83 µM | 4.4 µM | 
COc1cc(/C=C(\C#N)C(N)=O)cc(CSc2ccccc2NC(C)=O)c1O | 22 µM | 5.6 µM | 
Cc1cc(C=C(C#N)C#N)cc(O)c1O | 62 µM | 5.6 µM | 
COc1cc(/C=C(\C#N)C(=O)c2ccc(O)c(O)c2)cc(CSCc2ccccc2)c1O | 4.5 µM | 0.75 µM | 
COc1cc(/C=C(\C#N)C(N)=O)cc(CSc2ccccc2)c1O | 0.4 µM | 2.9 µM | 
CCOc1ccc2nc(SCc3cc(/C=C(\C#N)C(N)=O)cc(OC)c3O)sc2c1 | > 167 µM |  | > 100 µM
COc1cc(/C=C(\C#N)C(N)=O)cc(CSc2nc3ccccc3o2)c1O | 5.3 µM | 12.5 µM | 
COc1cc(C=C(C#N)C#N)cc(CSc2ccccc2C(=O)O)c1O | 8 µM | 36 µM | 
COc1cc(/C=C(\C#N)C(N)=O)cc(CSc2ccccn2)c1O | 3.4 µM | 25 µM | 
COc1cc(/C=C(\C#N)C(N)=O)cc(CSCc2ccc(Cl)cc2)c1O | 16 µM | 14.8 µM | 
COc1cc(/C=C(\C#N)C(N)=O)cc(CSc2ccccc2C(=O)O)c1O | 0.71 µM | 37 µM | 
COc1cc(C=C(C#N)C#N)cc(C)c1O | 87 µM | 2600 µM | 
COc1cc(C=C(C#N)C#N)cc(CSCC(=O)O)c1O | 54 µM | 96 µM | 
COc1cc(C=C(C#N)C#N)cc(CSc2ccccc2)c1O | 6.7 µM | 370 µM | 
COc1cc(/C=C(\C#N)C(N)=O)cc(CSCc2ccccc2Cl)c1O | 1 µM | 2.5 µM | 
COc1cc(/C=C(\C#N)C(N)=O)cc(CSCc2ccccc2)c1O | 0.9 µM | 1.95 µM | 
COc1cc(/C=C(\C#N)C(N)=O)cc(CSc2ccc3ccccc3c2)c1O | 1.7 µM | 6.6 µM | 
COc1cc(/C=C(\C#N)C(N)=O)cc(CSc2nc3ccccc3[nH]2)c1O | 14.5 µM | 75 µM | 
N#C/C(=C\c1cc(O)c(O)c(CSc2nc3ccccc3s2)c1)C(N)=O | 3.2 µM | 6.5 µM | 
COc1cc(C=C(C#N)C#N)cc(CS(=O)(=O)c2ccc(C)cc2)c1O | 23 µM | 85 µM | 
COc1cc(/C=C(\C#N)C(N)=O)cc(CSc2ccc(O)cc2)c1O | 2.5 µM | 2.5 µM | 
COc1cc(/C=C(\C#N)C(N)=O)cc(CSCCC(=O)O)c1O |  |  | 125 µM
N#C/C(=C\c1cc(O)c(O)c(CSCc2ccccc2)c1)C(N)=O | 0.64 µM | 0.94 µM | 
